Measured values as given in publication PMC10315065 (Journal of Innate Immunity, 2023).
Starred links: 1 amine or outer side, 2 acyl side, 3 side chain; linkers in the order of their positions; H or OH if unused. Positions of bridges follow the written chain, without caps; N, C: chain ends. Non-standard residues stand in square brackets, D forms with d. Residues, ends and D or L forms follow the SMILES beside them. Chains are numbered I, II in the order given. Actinocin(9to1) = Cc1c2oc3c(C)ccc(C(=O)[*:1])c3nc-2c(C(=O)[*:2])c(N)c1=O; NMeV = CN[C@H](C(=O)O)C(C)C; Sar = CNCC(=O)O

Key:
[1] = system: intracellular Mycobacterium tuberculosis in macrophages; conditions: cited from earlier work; for autophagy activation and M.tb elimination: via induction of cathelicidin LL-37
TLR-4, THP-1 cells = assay: TLR-4 membrane expression on LPS treatment; type: cell-based; conditions: LPS 1 ug, 24 h; PMA-activated THP-1
J774 macrophages = assay: Flow cytometry binding/internalization of labelled peptide, J774; type: cell-based, mouse; conditions: n = 3
peritoneal macrophages = assay: Flow cytometry binding/uptake of LL-37-FAM, peritoneal macrophages; type: cell-based, C57BL/6 mice
THP-1 cells = assay: Endocytosis of BSA-FITC; type: cell-based; conditions: BSA-FITC 10 μg, 37°C, 30 min; PMA-activated THP-1
[2] = Downstream effects of scrambled peptide; conditions: statement on negative control peptide
cell surface GAPDH, J774 = type: cell-based, mouse; conditions: KN-62 100 nM, 4 h; J774 wild-type; n = 3
[3] = system: GAPDH KD and wild-type cells; conditions: induced with actinomycin D; cited from earlier work

For `C=C1/C(=C\C=C2/CCC[C@]3(C)[C@@H]([C@H](C)CCCC(C)(C)O)CC[C@@H]23)C[C@@H](O)C[C@@H]1O` [vitamin 1,25-D3], the “autophagy activation and M.tb elimination” value [1] is listed as “activate the antibacterial autophagy mechanism”.
For `O=C(O)CCCc1ccccc1` [phenylbutyrate], the “autophagy activation and M.tb elimination” value [1] is given as “activate the antibacterial autophagy mechanism”.
In the case of lipopolysaccharide, the “TLR-4 membrane expression, empty vector and GAPDH KD” value (TLR-4, THP-1 cells) is reported as “upregulation of TLR-4 membrane expression levels”.
For “5-FAM-LC-LLGDFFRKSKEKIGKEFKRIVQRIKDFLRNLVPRTES [LL-37-FAM]”, the “LL-37 membrane accumulation and uptake, IFNγ-treated” value (J774 macrophages; IFNγ-treated subsets vs control cells) was “initial higher accumulation of FAM-LL-37 at their membrane, followed by increase in LL-37 uptake into the cytoplasm” and the “cell surface LL-37 binding and uptake, M.tb infected” value (peritoneal macrophages) was “significantly enhanced”.
For BSA: BSA-FITC, endocytosis control, the “endocytosis of BSA, empty vector vs GAPDH KD” value (THP-1 cells) was “could equally well carry out endocytosis of BSA”.
In the case of “GLKLRFEFSKIKGEFLKTPEVRFRDIKLKDNRISVQR [scrambled peptide]”, the “downstream effects of scrambled peptide” value [2] is reported as “does not show downstream effects like the LL-37 peptide”.
For `CN([C@@H](Cc1ccc(OS(=O)(=O)c2cccc3cnccc23)cc1)C(=O)N1CCN(c2ccccc2)CC1)S(=O)(=O)c1cccc2cnccc12` [KN-62, 1-(N,O-bis(5-Isoquinolinesulfonyl)-N-methyl-L-tyrosyl)-4-phenylpiperazine], the “effect on LL-37-induced anti-mycobacterial effects” value ([1]; KN-62) is listed as “does not inhibit LL-37-induced anti-mycobacterial effects”, the “LL-37 uptake with KN-62” value (J774 macrophages; KN-62 100 nM, 4 h, J774 wild-type) is listed as “inhibition of LL-37 uptake into cells” and the “cell surface GAPDH expression with KN-62” value (cell surface GAPDH, J774) is listed as “decrease in cell surface GAPDH expression”.
For `Cc1c2oc3c(C)ccc(C(=O)N[C@@H]4C(=O)N[C@H](C(C)C)C(=O)N5CCC[C@H]5C(=O)N(C)CC(=O)N(C)[C@@H](C(C)C)C(=O)O[C@@H]4C)c3nc-2c(C(=O)N[C@@H]2C(=O)N[C@H](C(C)C)C(=O)N3CCC[C@H]3C(=O)N(C)CC(=O)N(C)[C@@H](C(C)C)C(=O)O[C@@H]2C)c(N)c1=O` [actinomycin D] (I: T[dV]P[Sar][NMeV] / II: T[dV]P[Sar][NMeV]; ester I:1-I:C, II:1-II:C; linker I:N-II:N via Actinocin(9to1)), the “induction of apoptosis, GAPDH KD vs wild-type” value [3] is given as “comparable”.
